Assay results reported in patent US20240417404A1, “CRYSTALLINE FORMS OF N-[4-[4-(4-MORPHOLINYL)-7H-PYRROLO[2,3-d]PYRIMIDIN-6-YL]PHENYL]-4-[[3(R)-[(1-OXO-2-PROPEN-1-YL)AMINO]-1-[sequence]]METHYL]-2-PYRIDINECARBOXAMIDE AS IRREVERSIBLE INHIBITORS OF MENIN-MLL INTERACTION” (BIOMEA FUSION, INC., priority 2023, published 2024).
In brackets after ≈: the same amount, converted by molar mass.

Tests used:
[1] = Solubility of Compound A crystalline forms in aqueous buffers and biorelevant media
[2] = Solid form stability (XRPD after storage, conversion in MeOH/water, thermal); format: physicochemical; details: for Stability: polymorph stability, K converted into Pattern D in MeOH/water mixture (water activity from 0 to 1)
Method: X-ray powder diffraction patterns were collected on a Bruker AXS C2 GADDS or Bruker AXS D8 diffractometer.
X-ray Powder Diffraction patterns were collected on a Bruker AXS C2 GADDS diffractometer using Cu Kα radiation (40 kV, 40 mA), automated XYZ stage, laser video microscope for auto-sample positioning, and a HiStar 2-dimensional area detector. X-ray optics consists of a single Göbel multilayer mirror coupled with a pinhole collimator of 0.3 mm. A weekly performance check is carried out using a certified standard NIST 1976 Corundum (flat plate). The beam divergence (i.e., the effective size of the X-ray beam on the sample) was approximately 4 mm. A θ-θ continuous scan mode was employed with a sample—detector distance of 20 cm which gives an effective 2θ range of 3.2°-29.7°. Typically the sample would be exposed to the X-ray beam for 120 seconds. The software used for data collection was GADDS for WNT 4.1.16 and the data were analyzed and presented using Diffrac Plus EVA v11.0.0.2 or v13.0.0.2.
X-ray Powder Diffraction patterns were collected on a Bruker D8 diffractometer using Cu Kα radiation (40 kV, 40 mA), θ-2θ goniometer, and divergence of V4 and receiving slits, a Ge monochromator and a Lynxeye detector. The instrument is performance checked using a certified Corundum standard (NIST 1976). The software used for data collection was Diffrac Plus XRD Commander v2.5.0 and the data were analysed and presented using Diffrac Plus EVA v11.0.0.2 or v13.0.0.2. Samples were run under ambient conditions as flat plate specimens using powder as received. The sample was gently packed into a cavity cut into a polished, zero-background (510) silicon wafer. The sample was rotated via its own plane during analysis. The details of the data collection are: • Angular range: 2 to 42 02θ • Step size: 0.05 02θ • Collection time: 0.5 s/step

[3] = Hygroscopicity (water absorption versus relative humidity); format: physicochemical; details: from 40% RH to 70% RH at 25° C.
physchem = details: pH 4.5, aqueous buffer, observed aqueous solubility

With `C=CC(=O)N[C@@H]1CCCN(Cc2ccnc(C(=O)Nc3ccc(-c4cc5c(N6CCOCC6)ncnc5[nH]4)cc3)c2)C1` [Form D, N-[4-[4-(4-morpholinyl)-7H-pyrrolo[2,3-d]pyrimidin-6-yl]phenyl]-4-[[3(R)-[(1-oxo-2-propen-1-yl)amino]-1-piperidinyl]methyl]-2-pyridinecarboxamide] the solubility ([1]; aqueous medium, pH 4.5, aqueous buffer, observed aqueous solubility, at about pH 4.5) was ~4 µg/mL (≈ 7.06 µM), the solubility ([1]; pH 1.2 HCl buffer, pH 1.6 FaSSGF, pH 1.2, simulated gastric fluid, solubility, pH 1.2 HCl buffer and pH 1.6 FaSSGF) was > 2000 µg/mL and the Stability ([2]; listed as D) was “High”.

In the case of `C=CC(=O)N[C@@H]1CCCN(Cc2ccnc(C(=O)Nc3ccc(-c4cc5c(N6CCOCC6)ncnc5[nH]4)cc3)c2)C1` [Form K, N-[4-[4-(4-morpholinyl)-7H-pyrrolo[2,3-d]pyrimidin-6-yl]phenyl]-4-[[3(R)-[(1-oxo-2-propen-1-yl)amino]-1-piperidinyl]methyl]-2-pyridinecarboxamide], the solubility ([1]; aqueous buffer, solubility, water, pH 4.5 acetate buffer, pH 6.8 phosphate buffer, pH 5.0 FeSSIF-v1 and pH 6.5 FaSSIF-v1) is reported as < 35 µg/mL, the “observed hygroscopicity and absorption of water” value [3] is reported as “about 2.1%” and the solubility (physchem) is reported as ~4 µg/mL (≈ 7.06 µM). For the same compound, the “XRPD pattern post storage” value ([2]; closed container at 60° C. and 75% RH for at least a week) was “substantially the same X-ray powder diffraction (XRPD) pattern”, the “XRPD pattern post storage” value ([2]; open container at 25° C. and 92% RH for at least a week) was “substantially the same X-ray powder diffraction (XRPD) pattern” and the “XRPD pattern post storage” value ([2]; open container at 40° C. and 75% RH for at least a week) was “substantially the same X-ray powder diffraction (XRPD) pattern”. The Stability ([2]; listed as K) was “Low-Converted into” and the “Stability (thermal)” value ([2]; thermal) was “But thermally very stable”.

In the case of `C=CC(=O)N[C@@H]1CCCN(Cc2ccnc(C(=O)Nc3ccc(-c4cc5c(N6CCOCC6)ncnc5[nH]4)cc3)c2)C1` [Form M, N-[4-[4-(4-morpholinyl)-7H-pyrrolo[2,3-d]pyrimidin-6-yl]phenyl]-4-[[3(R)-[(1-oxo-2-propen-1-yl)amino]-1-piperidinyl]methyl]-2-pyridinecarboxamide], the Crystallinity after storage ([2]; one week of storage at 25° C./92% RH) is reported as “unaffected” and the Crystallinity after storage ([2]; one week of storage at 40° C./75% RH) is reported as “unaffected”.
